Earlier results in US20190233345A1, “AGRICULTURAL SYSTEMS, COMPOSITIONS AND METHODS FOR INCREASING CROP YIELD” (E. I. DU PONT DE NEMOURS AND COMPANY, priority 2016, published 2019).

Columns and labels:
[1] = system: lepidopteran pests of soy (including Army Worm; Spodoptera frugiperda and Velvet Bean Caterpillar (Anticarsia gemmatalis))
[2] = system: lepidopteran pests of corn (including Army Worm; Spodoptera frugiperda)

SMILES | LD-50 [1] | LD-50 [2]
CNC(=O)c1cc(C#N)cc(C)c1NC(=O)c1cc(Br)nn1-c1ncccc1Cl [HGW, cyantraniliprole] | 50-60 ppb | 50-60 ppb
CNC(=O)c1cc(Cl)cc(C)c1NC(=O)c1cc(Br)nn1-c1ncccc1Cl [Prototype E2Y, chlorantraniliprole] | 15-20 ppb | 15-20 ppb
